Some test systems named below: OVCAR-3 ovarian; CCRF-CEM leukemia; UACC-62 melanoma; SF-539 CNS; SW-620 colon; TK-10 renal; K-562 leukemia; HOP-62 NSCLC; A549 NSCLC; SK-OV-3 ovarian.
Assay in all cases: growth of human tumour cells (NCI), 48 h

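Dose response: 5 concentrations. Exposure: 48 h. Format: 96-well plates. Endpoint: linear interpolation; highest concentration if not reached. At the GI50, growth is halved. The concentration for full growth arrest is given as TGI.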

In the case of `N#Cc1cccc(NC(=O)c2cc(-c3ccc(F)cc3F)ccc2O)c1`, the GI50 in the test on OVCAR-3 ovarian is 2.17 µM; in the test with CCRF-CEM leukemia, 3.07 µM; in the test with UACC-62 melanoma it was 0.87 µM; in the test on SF-539 CNS, 3.07 µM; in the test with SW-620 colon it was 3.02 µM; in the test on TK-10 renal, 3.24 µM. For the same molecule, the GI50 with K-562 leukemia was 1.98 µM; with HOP-62 NSCLC it was 2.97 µM; in the test with A549 NSCLC it was 3.09 µM. In addition, the TGI with OVCAR-3 ovarian was 11.7 µM; in the test with CCRF-CEM leukemia, 47.7 µM; with UACC-62 melanoma, 4.42 µM; in the test with SF-539 CNS it was 10.5 µM; in the test with SW-620 colon, 22.3 µM; in the test with TK-10 renal it was 20.1 µM. In addition, the TGI in the test with K-562 leukemia is over 100 µM; with HOP-62 NSCLC, 11 µM; in the test on A549 NSCLC it was 28.4 µM.

As for `CCOC(=O)CCn1[nH]c(=O)c(Cl)c(Cl)c1=O`, the TGI with OVCAR-3 ovarian, in the test on CCRF-CEM leukemia, in the test with UACC-62 melanoma, in the test with SK-OV-3 ovarian, in the test with SW-620 colon and in the test on TK-10 renal was over 100 µM throughout. Besides, the TGI in the test on K-562 leukemia, with HOP-62 NSCLC and in the test with A549 NSCLC was over 100 µM throughout.

Regarding `c1cc2c(ncc3cscc32)s1`, the TGI was over 100 µM in the test with OVCAR-3 ovarian; over 100 µM with CCRF-CEM leukemia; over 31.6 µM in the test on UACC-62 melanoma; over 100 µM with SF-539 CNS; over 100 µM in the test on SW-620 colon; over 100 µM in the test on TK-10 renal. The TGI in the test on K-562 leukemia, with HOP-62 NSCLC and in the test with A549 NSCLC was over 100 µM in each case.

In the case of `CCOC(=O)C(Cc1cn(S(=O)(=O)c2ccccc2)c2ccccc12)(NC(C)=O)C(=O)OCC`, the TGI with OVCAR-3 ovarian was over 100 µM; in the test on CCRF-CEM leukemia, 72 µM; with UACC-62 melanoma, over 100 µM; in the test on SF-539 CNS, over 100 µM; with SW-620 colon it was over 100 µM; in the test with TK-10 renal, over 100 µM. The TGI in the test on K-562 leukemia, in the test with HOP-62 NSCLC and in the test on A549 NSCLC was over 100 µM each time.

On to `CN1C(=O)c2ccccc2NC(=O)C12O[C@@H]2c1cccc(O)c1` (stereo partly drawn), for which the TGI in the test on OVCAR-3 ovarian, in the test on CCRF-CEM leukemia, in the test on UACC-62 melanoma, in the test with SF-539 CNS, with SW-620 colon and in the test on TK-10 renal was over 100 µM throughout. Besides, the TGI in the test on HOP-62 NSCLC and in the test with A549 NSCLC was over 100 µM in each case.

In the case of `COc1ncc(-c2ccc3ncnc(Nc4cccc(Cl)c4)c3c2)cc1NS(=O)(=O)CCN1CCOCC1`, the GI50 in the test on CCRF-CEM leukemia is 0.799 µM; with SW-620 colon, 1.25 µM. Also, the TGI in the test on CCRF-CEM leukemia and in the test with SW-620 colon was over 100 µM in each case.

For the molecule `CC1=N/C(=C\c2cccc([N+](=O)[O-])c2)C(=O)O1`, the TGI with CCRF-CEM leukemia, in the test with UACC-62 melanoma, in the test on SF-539 CNS, in the test on SW-620 colon, in the test on TK-10 renal and in the test with K-562 leukemia was over 100 µM each time. The TGI with HOP-62 NSCLC and in the test with A549 NSCLC was over 100 µM throughout.

Turning to `Cn1c2ccccc2c2c3[nH]c(=O)[nH]c(=O)c3c3c4ccccc4n(C)c3c21`, the GI50 in the test with OVCAR-3 ovarian is 2.38 µM; in the test with CCRF-CEM leukemia it was 3.73 µM; in the test on UACC-62 melanoma, 6.64 µM; in the test on SK-OV-3 ovarian it was 1.75 µM; with SF-539 CNS it was 1.78 µM; in the test with SW-620 colon, 2.67 µM. Moreover, the GI50 is 1.91 µM with TK-10 renal, 2.03 µM in the test on HOP-62 NSCLC and 2.86 µM with A549 NSCLC. The TGI is 7 µM in the test on OVCAR-3 ovarian; over 100 µM in the test with CCRF-CEM leukemia; over 100 µM with UACC-62 melanoma; 5.79 µM in the test with SK-OV-3 ovarian; 6.61 µM with SF-539 CNS; over 100 µM with SW-620 colon. Moreover, the TGI in the test on TK-10 renal was 16.5 µM; in the test with HOP-62 NSCLC it was 5.83 µM; in the test on A549 NSCLC, over 100 µM.

For `COc1cccc(/C=C2\C(=O)N(C(=O)c3ccc(NC(C)=O)cc3)N=C2C)c1`, the TGI with OVCAR-3 ovarian, with CCRF-CEM leukemia, in the test on SF-539 CNS, with SW-620 colon, in the test on TK-10 renal and in the test on K-562 leukemia was over 100 µM in each case. The TGI with HOP-62 NSCLC and with A549 NSCLC was over 100 µM throughout.

Regarding `COC(=O)c1cc(C)c(C)c2c1NC(=O)CNC2=O`, the TGI in the test with OVCAR-3 ovarian, with CCRF-CEM leukemia, in the test on UACC-62 melanoma, with SF-539 CNS, in the test on SW-620 colon and in the test with K-562 leukemia was over 100 µM throughout. Also, the TGI with HOP-62 NSCLC and in the test on A549 NSCLC was over 100 µM in each case.

Turning to `CNc1nc(N)c(N=O)c(Nc2ccc(Br)cc2)n1`, the TGI in the test with OVCAR-3 ovarian, with CCRF-CEM leukemia, with UACC-62 melanoma, with SF-539 CNS, with SW-620 colon and in the test on TK-10 renal was over 100 µM throughout. In addition, the TGI in the test with K-562 leukemia, in the test with HOP-62 NSCLC and in the test on A549 NSCLC was over 100 µM in each case.

Values taken from PubChem BioAssay (NCI).
